In general, IC50 refers to the midpoint of a concentration-inhibition curve. A high value points to weaker potency in that assay.

From paper PMC5006034 (Scientific Reports, 2016) come the findings set out here.

The target of the test is T1, hP2X2R (Homo sapiens, UniProt Q9UBL9).
T1 construct: gene P2RX2
T1 sequence (Q9UBL9 1-471): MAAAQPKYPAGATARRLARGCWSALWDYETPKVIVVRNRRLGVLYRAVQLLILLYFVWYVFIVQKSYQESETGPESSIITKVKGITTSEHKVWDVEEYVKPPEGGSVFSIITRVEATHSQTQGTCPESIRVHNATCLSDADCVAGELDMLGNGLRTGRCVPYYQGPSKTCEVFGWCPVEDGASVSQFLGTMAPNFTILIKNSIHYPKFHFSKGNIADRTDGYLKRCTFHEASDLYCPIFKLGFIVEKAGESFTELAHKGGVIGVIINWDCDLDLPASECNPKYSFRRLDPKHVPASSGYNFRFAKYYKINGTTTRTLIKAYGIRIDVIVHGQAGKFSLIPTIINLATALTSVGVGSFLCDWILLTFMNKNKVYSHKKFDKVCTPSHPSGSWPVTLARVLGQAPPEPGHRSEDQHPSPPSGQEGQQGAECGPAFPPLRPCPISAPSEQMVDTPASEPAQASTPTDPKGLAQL
Briefly: Ca2+ imaging in cells expressing hP2X2R (outsourced selectivity assay). The format is cell-based.

Take `O=C1CC(=O)N(c2cccc(-c3noc(=S)[nH]3)c2)c2ccc3ccccc3c2N1` [NP-1815-PX, 5-[3-(5-thioxo-4H-[1,2,4]oxadiazol-3-yl)phenyl]-1H-naphtho[1,2-b][1,4]diazepine-2,4(3H,5H)-dione]: inhibition was half-maximal at 7.3 µM (IC50).
